Laboratory results reported in US20230150970A1, “AMINOPYRIMIDINE DERIVATIVES AND THEIR USE AS ARYL HYDROCARBON RECEPTOR MODULATORS” (DONG-A ST CO., LTD., priority 2020, published 2023).

target: T1, AhR (Homo sapiens, UniProt P35869); experiment: In Vitro Assay 1: XRE-luciferase reporter assay, antagonism in human cell line (HepG2); conditions: Assay 1: AhR-Luc Human Antagonism (IC50, nM), unmarked values: kynurenine 200 μM, 6 hours
T1 sequence (P35869 11-848): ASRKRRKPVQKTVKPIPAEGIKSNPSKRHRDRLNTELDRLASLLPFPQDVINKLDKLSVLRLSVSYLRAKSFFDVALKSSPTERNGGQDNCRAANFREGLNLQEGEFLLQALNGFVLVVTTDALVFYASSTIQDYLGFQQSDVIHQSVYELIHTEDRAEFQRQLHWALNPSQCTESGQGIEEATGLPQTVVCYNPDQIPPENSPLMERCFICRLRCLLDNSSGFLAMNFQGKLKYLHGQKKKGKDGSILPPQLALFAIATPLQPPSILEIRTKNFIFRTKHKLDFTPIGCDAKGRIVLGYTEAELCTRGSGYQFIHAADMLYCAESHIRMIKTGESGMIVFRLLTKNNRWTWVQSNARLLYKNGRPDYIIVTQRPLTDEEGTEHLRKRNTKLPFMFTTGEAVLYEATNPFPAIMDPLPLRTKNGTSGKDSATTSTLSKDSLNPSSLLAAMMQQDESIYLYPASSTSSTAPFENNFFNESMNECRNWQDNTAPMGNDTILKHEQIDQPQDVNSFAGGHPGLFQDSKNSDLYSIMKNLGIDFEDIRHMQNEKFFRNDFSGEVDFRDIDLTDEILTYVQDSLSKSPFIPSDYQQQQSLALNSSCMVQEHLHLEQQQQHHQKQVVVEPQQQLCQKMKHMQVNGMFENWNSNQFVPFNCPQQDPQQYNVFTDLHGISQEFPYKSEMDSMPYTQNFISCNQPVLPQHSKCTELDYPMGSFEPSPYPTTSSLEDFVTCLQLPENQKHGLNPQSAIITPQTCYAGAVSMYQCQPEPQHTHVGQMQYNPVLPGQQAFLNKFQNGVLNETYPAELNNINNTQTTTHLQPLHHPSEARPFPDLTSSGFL

Structure (SMILES)	IC50
O=C(O)[C@@H]1CCN(c2cc(-c3ccc(Cl)cc3)nc(-c3cccnc3)n2)C1 [Example 311, (R)-1-(6-(4-chlorophenyl)-2-(pyridin-3-yl)pyrimidin-4-yl)pyrrolidine-3-carboxylic acid]	100 to 1000 nM
Cn1cc(-c2nc(-c3ccc(Cl)cc3)cc(N3CC[C@@H](C(=O)O)C3)n2)cn1 [Example 313, (R)-1-(6-(4-chlorophenyl)-2-(1-methyl-1H-pyrazol-4-yl)pyrimidin-4-yl)pyrrolidine-3-carboxylic acid]	> 1000 nM
O[C@H]1CCN(c2cc(-c3ccc(N4CCOCC4)nc3)nc(-c3cccnc3)n2)C1 [Example 315, (S)-1-(6-(6-morpholinopyridin-3-yl)-2-(pyridin-3-yl)pyrimidin-4-yl)pyrrolidin-3-ol]	< 10 nM
Oc1cc(Cl)ccc1-c1cc(N2CC[C@H](O)C2)nc(-c2cccnc2)n1 [Example 316, (S)-1-(6-(4-chloro-2-hydroxyphenyl)-2-(pyridin-3-yl)pyrimidin-4-yl)pyrrolidin-3-ol]	< 10 nM
Oc1ncccc1-c1cc(N2CC[C@H](O)C2)nc(-c2cccnc2)n1 [Example 317, (S)-3-(6-(3-hydroxypyrrolidin-1-yl)-2-(pyridin-3-yl)pyrimidin-4-yl)pyridin-2-ol]	> 1000 nM
OCC1CCN(c2cc(-c3ccc(F)nc3)nc(-c3cccnc3)n2)CC1 [Example 318, (1-(6-(6-fluoropyridin-3-yl)-2-(pyridin-3-yl)pyrimidin-4-yl)piperidin-4-yl)methanol]	10 to 100 nM
OC1CN(c2cc(-c3ccc(Cl)cc3)nc(-c3cccnc3)n2)C1 [Example 319, 1-(6-(4-chlorophenyl)-2-(pyridin-3-yl)pyrimidin-4-yl)azetidin-3-ol]	10 to 100 nM
OCC1CN(c2cc(-c3ccc(Cl)cc3)nc(-c3cccnc3)n2)C1 [Example 320, (1-(6-(4-chlorophenyl)-2-(pyridin-3-yl)pyrimidin-4-yl)azetidin-3-yl)methanol]	10 to 100 nM
Cn1cc(-c2nc(-c3ccc(Cl)cc3)cc(N3CCN(S(C)(=O)=O)CC3)n2)cn1 [Example 321, 4-(4-chlorophenyl)-2-(1-methyl-1H-pyrazol-4-yl)-6-(4-(methylsulfonyl)piperazin-1-yl)pyrimidine]	100 to 1000 nM
Oc1cccc(-c2nc(-c3ccc(Cl)cc3)cc(N3CC[C@H](O)C3)n2)c1 [Example 322, (S)-1-(6-(4-chlorophenyl)-2-(3-hydroxyphenyl)pyrimidin-4-yl)pyrrolidin-3-ol]	> 1000 nM
O[C@H]1CCN(c2cc(-c3ccc(Cl)cc3)nc(-c3ccncc3)n2)C1 [Example 324, (S)-1-(6-(4-chlorophenyl)-2-(pyridin-4-yl)pyrimidin-4-yl)pyrrolidin-3-ol]	> 1000 nM
CS(=O)(=O)N1CCN(c2cc(-c3ccc(Cl)cc3)nc(-c3cncc(F)c3)n2)CC1 [Example 325, 4-(4-chlorophenyl)-2-(5-fluoropyridin-3-yl)-6-(4-(methylsulfonyl)piperazin-1-yl)pyrimidine]	10 to 100 nM
CS(=O)(=O)C1CCN(c2cc(-c3ccc(Cl)cc3)nc(-c3cccnc3)n2)CC1 [Example 326, 4-(4-chlorophenyl)-6-(4-(methylsulfonyl)piperidin-1-yl)-2-(pyridin-3-yl)pyrimidine]	10 to 100 nM
O=S(=O)(C1CC1)N1CCN(c2cc(-c3ccc(Cl)cc3)nc(-c3cccnc3)n2)CC1 [Example 328, 4-(4-chlorophenyl)-6-(4-(cyclopropylsulfonyl)piperazin-1-yl)-2-(pyridin-3-yl)pyrimidine]	10 to 100 nM
O[C@H]1CCN(c2cc(-c3ccc(Cl)cc3)nc(-c3ccnnc3)n2)C1 [Example 329, (S)-1-(6-(4-chlorophenyl)-2-(pyridazin-4-yl)pyrimidin-4-yl)pyrrolidin-3-ol]	100 to 1000 nM
OC1CCCN(c2cc(-c3ccc(Cl)cc3)nc(-c3cccnc3)n2)CC1 (centres unmarked) [Example 330, 1-(6-(4-chlorophenyl)-2-(pyridin-3-yl)pyrimidin-4-yl)azepan-4-ol]	10 to 100 nM

More lines, now with the values ahead:

IC50	Structure (SMILES)
< 10 nM	CS(=O)(=O)N1CC2CC1CN2c1cc(-c2ccc(Cl)cc2)nc(-c2cccnc2)n1 (centres unmarked) [Example 331, 2-(6-(4-chlorophenyl)-2-(pyridin-3-yl)pyrimidin-4-yl)-5-(methylsulfonyl)-2,5-diazabicyclo[2.2.1]heptane]
> 1000 nM	Cn1nnc(-c2nc(-c3ccc(Cl)cc3)cc(N3CC[C@H](O)C3)n2)n1 [Example 332, (S)-1-(6-(4-chlorophenyl)-2-(2-methyl-2H-tetrazol-5-yl)pyrimidin-4-yl)pyrrolidin-3-ol]
> 1000 nM	Cn1nnc(-c2nc(-c3ccc(C(F)(F)F)cc3)cc(N3CC[C@H](O)C3)n2)n1 [Example 333, (S)-1-(2-(2-methyl-2H-tetrazol-5-yl)-6-(4-(trifluoromethyl)phenyl)pyrimidin-4-yl)pyrrolidin-3-ol]
> 1000 nM	Cn1nnc(-c2nc(-c3ccc(Cl)cc3)cc(N3CCN(S(C)(=O)=O)CC3)n2)n1 [Example 334, 4-(4-chlorophenyl)-2-(2-methyl-2H-tetrazol-5-yl)-6-(4-(methylsulfonyl)piperazin-1-yl)pyrimidine]
< 10 nM	O=S(=O)(CCF)N1CCN(c2cc(-c3ccc(Cl)cc3)nc(-c3cccnc3)n2)CC1 [Example 335, 4-(4-chlorophenyl)-6-(4-((2-fluoroethyl)sulfonyl)piperazin-1-yl)-2-(pyridin-3-yl)pyrimidine]
100 to 1000 nM	O[C@H]1CCN(c2cc(-c3ccc(Cl)cc3)nc(-c3cnoc3)n2)C1 [Example 336, (S)-1-(6-(4-chlorophenyl)-2-(isoxazol-4-yl)pyrimidin-4-yl)pyrrolidin-3-ol]
< 10 nM	CS(=O)(=O)C1(CO)CCN(c2cc(-c3ccc(Cl)cc3)nc(-c3cccnc3)n2)CC1 [Example 337, (1-(6-(4-chlorophenyl)-2-(pyridin-3-yl)pyrimidin-4-yl)-4-(methylsulfonyl)piperidin-4-yl)methanol]
100 to 1000 nM	OC1CCCCN(c2cc(-c3ccc(Cl)cc3)nc(-c3cccnc3)n2)C1 (centres unmarked) [Example 338, 1-(6-(4-chlorophenyl)-2-(pyridin-3-yl)pyrimidin-4-yl)azepan-3-ol]
< 10 nM	O[C@H]1CCN(c2cc(-c3ccc(C(F)(F)F)cc3)nc(-c3cccnc3)n2)C1 [Example 340, (S)-1-(2-(pyridin-3-yl)-6-(4-(trifluoromethyl)phenyl)pyrimidin-4-yl)pyrrolidin-3-ol]
> 1000 nM	CS(=O)(=O)N1CCN(c2cc(-c3ccc(C(F)(F)F)cc3)nc(-c3cccnc3)n2)CC1 [Example 341, 4-(4-(methylsulfonyl)piperazin-1-yl)-2-(pyridin-3-yl)-6-(4-(trifluoromethyl)phenyl)pyrimidine]
> 1000 nM	O[C@H]1CCN(c2cc(-c3ccc(Cl)cc3)nc(-c3cnc(F)c(F)c3)n2)C1 [Example 342, (S)-1-(6-(4-chlorophenyl)-2-(5,6-difluoropyridin-3-yl)pyrimidin-4-yl)pyrrolidin-3-ol]
> 1000 nM	O[C@@H]1CN(c2cc(-c3ccc(C(F)(F)F)cc3)nc(-c3cccnc3)n2)C[C@@H]1O [Example 343, (3S,4R)-1-(2-(pyridin-3-yl)-6-(4-(trifluoromethyl)phenyl)pyrimidin-4-yl)pyrrolidine-3,4-diol]
< 10 nM	O[C@H]1CCN(c2cc(-c3ccc(Cl)cc3)nc(-c3cncnc3)n2)C1 [Example 344, (S)-1-(6-(4-chlorophenyl)-[2,5′-bipyrimidin]-4-yl)pyrrolidin-3-ol]
100 to 1000 nM	O[C@H]1CCN(c2cc(-c3ccc(Cl)cc3)nc(-c3ccc(F)nc3)n2)C1 [Example 345, (S)-1-(6-(4-chlorophenyl)-2-(6-fluoropyridin-3-yl)pyrimidin-4-yl)pyrrolidin-3-ol]
10 to 100 nM	O[C@H]1CCN(c2cc(-c3ccc(Cl)cc3)nc(-c3cccnc3F)n2)C1 [Example 346, (S)-1-(6-(4-chlorophenyl)-2-(2-fluoropyridin-3-yl)pyrimidin-4-yl)pyrrolidin-3-ol]
> 1000 nM	O[C@H]1CCN(c2cc(-c3ccc(Cl)cc3)nc(-c3ccccn3)n2)C1 [Example 347, (S)-1-(6-(4-chlorophenyl)-2-(pyridin-2-yl)pyrimidin-4-yl)pyrrolidin-3-ol]
10 to 100 nM	Cn1cc(-c2nc(-c3ccc(Cl)cc3)cc(N3CCN(S(=O)(=O)CCO)CC3)n2)cn1 [Example 348, 2-((4-(6-(4-chlorophenyl)-2-(1-methyl-1H-pyrazol-4-yl)pyrimidin-4-yl)piperazin-1-yl)sulfonyl)ethanol]
< 10 nM	O[C@H]1CCN(c2cc(-c3ccc(C(F)(F)F)cc3)nc(-c3cnsc3)n2)C1 [Example 350, (S)-1-(2-(isothiazol-4-yl)-6-(4-(trifluoromethyl)phenyl)pyrimidin-4-yl)pyrrolidin-3-ol]
> 1000 nM	CS(=O)(=O)C1(CO)CCN(c2cc(-c3ccc(C(F)(F)F)cc3)nc(-c3cccnc3)n2)CC1 [Example 351, (4-(methylsulfonyl)-1-(2-(pyridin-3-yl)-6-(4-(trifluoromethyl)phenyl)pyrimidin-4-yl)piperidin-4-yl)methanol]
